We go through one compound from PMC10005750 (Molecules, 2023).

The nature of data set [1]: Pharmacokinetic interaction study after oral administration of DPZ and TAD, alone or in combination, in rats. The note with it: rat; for CL/F (apparent systemic clearance): tadalafil 0.3 mg/kg oral, n = 3, mean ± SD. Here is the method:
The rat plasma was stored at −70 °C. The plasma samples were thawed at room temperature and then centrifuged at 1800× g (4 °C) for 8 min before pipetting. Using a micropipette, 30 µL of the plasma sample was transferred into a polypropylene microtube, and 10 µL of IS working solution was added to each sample. Further, 0.2 mL of acetonitrile was then added and vortexed for 1 min. […] The supernatant was transferred to an analytical vessel, and 2 µL of the sample was injected into the LC-MS/MS system.
Rats were divided into three groups (n = 3): group 1, DPZ (3 mg/kg); group 2, TAD (0.3 mg/kg); and group 3, DPZ (3 mg/kg) combined with TAD (0.3 mg/kg). Animals were fasted overnight and allowed free access to water.
The peak plasma concentration, Cmax, and Tmax (the time to reach Cmax) for DPZ and TAD were calculated using individual plasma concentration–time profiles. […] The terminal half-life (T1/2) was calculated as ln 2/λz (λz is the elimination rate constant estimated by using the least-squares linear regression method of the terminal log-linear portion of the plasma concentration–time curve). The apparent clearance (CL/F) was calculated as CL/F = dose/AUC0-∞. The Mann–Whitney U test was used to determine the differences in the mean plasma concentration and PK profiles of DPZ and TAD between the single and combined administration groups. Statistical analysis was performed using SPSS Statistics (version 26.0; IBM SPSS Statistics for Windows, Armonk, NY, USA), and a p-value < 0.05 was considered statistically significant.

The nature of data set [2]: Plasma sample stability at low and high QC under storage and handling conditions. Here is the method:
Standard stock solutions of DPZ, TAD, and LPZ (IS) were prepared in methanol at a concentration of 100 µg/mL and stored at −20 °C. Working solutions were prepared by diluting the stock solutions with 50% methanol. The concentration of DPZ and TAD ranged from 1 to 200 ng/mL. […] The IS working solution was prepared by diluting the stock solution with 50% methanol to a concentration of 20 ng/mL. All working stock solutions were prepared and stored at −20 °C until use. Calibration standards and QC samples of DPZ and TAD in rat plasma were diluted with the corresponding working solutions and blank rat plasma. Drug-free plasma, that is, control (blank) plasma, stored in a deep freezer, was completely thawed at room temperature before use. Ten percent spiking with working DPZ and TAD stock solutions was performed in blank plasma. The spiked QC samples were stored at −70 °C for stability studies.
Stability analyses of the stock solutions were performed at room temperature for 3 h and under refrigerated conditions (4 °C) for 14 days. The stability of the plasma analytes was tested for low and high QC under pre-specified conditions: room temperature for 5 h, refrigeration (4 °C) for 14 days, autosampler (10 °C) for 20 h, four cycles of freezing-thawing, and finally frozen conditions (−70 °C) for 28 days for long-term stability.

The mark [3] stands for this setting: male, Sprague-Dawley, plasma, po.
Where [4] appears, read: male, Sprague-Dawley, plasma, po, 0.3 mg/kg.

With `CN1CC(=O)N2[C@H](c3ccc4c(c3)OCO4)c3[nH]c4ccccc4c3C[C@@H]2C1=O` [Tadalafil, tadalafil], the Tmax in data set [1] (setting [3]) and in data set [1] (setting [4]) was 0.5 h throughout. The values for the half-life in data set [1] (setting [3]) and in data set [1] (setting [4]) were 1.96 ± 0.212 h and 1.52 ± 0.12 h, respectively. In addition, the total exposure AUC(0-inf) (usually the area under the concentration-time curve extrapolated to infinity) in data set [1] (setting [4]) was determined as 50.4 ± 23.6 ng·h/mL. Further, the AUC(0-t) (as a rule, exposure summed from dosing to a finite time, without extrapolation to infinity) in data set [1] (setting [4]) stood at 47 ± 24.4 ng·h/mL. For the same compound, the Cmax – broadly, the peak of the concentration-time curve – in data set [1] (setting [4]) was 17.8 ± 6 ng/mL. The MRT last (in general, the average time that molecules of a dose stay in the body) in data set [1] (setting [4]) came out at 2.53 ± 0.214 h. Further, the “CL/F (apparent systemic clearance)” value is 7.355 ± 4.516 L/h in data set [1] (alone) and 11.819 ± 9.852 L/h in data set [1] (with DPZ 3 mg/kg). Further, the “Plasma sample stability (Mean ± SD, %)” value in data set [2] (extracted rat plasma sample, autosampler (10 °C, 20 h), nominal 2 ng/mL) is on record as 99.63 ± 6.03%; in data set [2] (extracted rat plasma sample, autosampler (10 °C, 20 h), nominal 160 ng/mL) it was 102.18 ± 3.98%; in data set [2] (rat plasma, freeze-thaw (4 cycles), nominal 2 ng/mL), 95.15 ± 2.69%; in data set [2] (rat plasma, freeze-thaw (4 cycles), nominal 160 ng/mL) it was 103.60 ± 1.55%; in data set [2] (rat plasma, refrigeration (4 °C, 14 days), nominal 2 ng/mL) it was 93.52 ± 3.03%; in data set [2] (rat plasma, refrigeration (4 °C, 14 days), nominal 160 ng/mL), 107.44 ± 5.73%. In addition, the “Plasma sample stability (Mean ± SD, %)” value worked out at 95.75 ± 4.54% in data set [2] (rat plasma, room temperature (5 h), nominal 2 ng/mL); 95.18 ± 0.41% in data set [2] (rat plasma, room temperature (5 h), nominal 160 ng/mL); 99.17 ± 3.88% in data set [2] (rat plasma, −70 °C (28 days), nominal 2 ng/mL); 104.42 ± 4.78% in data set [2] (rat plasma, −70 °C (28 days), nominal 160 ng/mL). Also, the “stability in rat plasma under all examined conditions” value in data set [2] (rat, plasma) is reported as “stable”.
